Where no end group is shown, it is not given here.

The results in this text go back to patent US20100210540A1, “USE OF THE PEPTIDE COMBINATION THYMOSIN BETA 4 AND DELTA SLEEP INDUCING PEPTIDE AS A THERAPEUTIC AGENT” (priority 2007, published 2010).

Test [1] has as its system HIV-1III8. Description: HIV-1 antiviral assay in CEM-SS cells (MTS readout).
In test [2] the test system is HCMV strain AD169. The test can be described thus: HCMV plaque formation assay in MRC-5 cells. The settings on record: for inhibition of HCMV plaque formation as compared to the virus control experiment: 10 micrograms per ml, 7-10 days. The test is classed as cell-based. The text has this:
Ganciclovir was used as positive control.

Test [3] deals with hepatitis B virus (HBV) ayw strain. Description: HBV experimental assay system (secreted HBV DNA, TaqMan PCR). Format: cell-based. To be noted: 10 micrograms per ml; HepG2-2.2.15 cells; six days.
Test [4] relates to Tumor Necrosis Factor-α (TNF-α). Description: Th1/Th2 cytokine profiling assay: TNF-α. The test is classed as cell-based, Balb/c mice. To be noted: 10 micrograms per ml; Ovalbumin restimulation; 72 hours.
Source text: (§1) The Balb/c mice (originated in 1923, it is a popular strain and is used in many different research disciplines. Also classified as an inbred from the production of 20 or more successive brother-sister matings, the Balb/c mouse is albino and small in size) were immunized on Days 1, 15, and 29 with Ovalbumin (Ovalbumin is the main protein found in egg white, commonly used to stimulate an immunological reaction in test animals) in PBS (5 micrograms/injection). On day 50, spleens of the mice were harvested (3 weeks after last boost with Ovalbumin). Cells were cultured (2×10^5/well in triplicate) and incubated with culture medium or test peptides—10 micrograms per ml—for 30 min. Thereafter, additional Ovalbumin was added to the cells at 10 micrograms/ml for in vitro restimulation of the cells. 72 hours later, cell supernatants were harvested and assayed using the Becton Dickinson Mouse Th1fTh2 Cytokine CBA Kit. This kit can be used to measure Interleukin-2 (IL-2), Interleukin-4 (IL-4), Interleukin-5 (IL-5), Interferon-γ (IFN-γ), and Tumor Necrosis Factor-α (TNF-α) protein levels in a single sample. The kit performance has been optimized for analysis of physiologically relevant concentrations (pg/ml levels) of specific cytokine proteins in tissue culture supernatants and serum samples.
The test system of test [5] is RAW 264.7 cells. The test can be described thus: Phagocytosis assay (Fluorescein-labeled Escherichia coli, flow cytometry). The test is classed as cell-based, Mouse. The settings on record: 10 micrograms per ml. Here is the method:
RAW 264.7 (Mouse leukaemic monocyte macrophage cell line) cells were obtained from ATCC and grown in RPMI 1640 medium containing 10% FBS. Cells were incubated in 12×75 mm tubes at 37° C. with test peptides—10 micrograms per ml—for 30 min prior to adding Fluorescein-labeled Escherichia coli bacteria as the agent to be ingested. After the cells were incubated for additional 60 min at 37° C. and allowed to ingest the Fluorescein-labeled Escherichia coli bacteria, cells were fixed with 1% paraformaldehyde. The samples were then analyzed by flow cytometry to determine the amount of phagocytosis as a function of brightness (the greater the phagocytic activity, the more fluorescence in the macrophage population). Data are reported as % positive and the mean fluorescence intensity (MFI) of positively stained cells.
(Flow cytometry measures light scatter and fluorescence of single cells or particles in a stream.)

Test [6] relates to Interleukin-5 (IL-5). Description: Th1/Th2 cytokine profiling assay: IL-5. Format: cell-based, Balb/c mice. To be noted: 10 micrograms per ml; Ovalbumin restimulation; 72 hours.
Source text: as §1
Test [7] deals with HUVEC. The test can be described thus: Endothelial tube formation assay. Format: cell-based, human. The settings on record: 10 micrograms per ml, 20 hours. The source says: Positive control was vehicle only.
For test [8], the system named is cyclic AMP generation in human peripheral blood mononuclear cells (PBMC). The test can be described thus: cAMP induction assay (ELISA). The test is classed as cell-based. To be noted: 10 micrograms per ml; 10 min at 37° C. The source says: Adenosine 3′,5′-cyclic monophosphate (cyclic AMP; cAMP) is one of the most important “second messengers” involved as a modulator of physiological processes. cAMP is also involved in regulating neuronal, glandular, cardiovascular, immune and other functions and actions in a regulatory way. For being a second messenger, cAMP has the following characteristics to work effectively: 1) Amplification—when a few peptide molecules signal the cell, it needs to respond with a signal that is strong enough to get a job done without repeated high levels of stimulation. 2) Control—eventually a response must be shut down, and there are instances when its necessary to respond a little or a lot—so control is needed. 3)—Specificity—when a peptide is utilized, a given cell should respond in a specific way. Not all cells will respond to this peptide and therefore they cannot have the same effect in all the cells. Elevated levels of cAMP in human cells are associated with the suppression of cell activation.
The cAMP kit was used as an immunoassay for the quantitative determination of cyclic AMP generation in human peripheral blood mononuclear cells (PBMC). […]; 50 micrograms per ml), or test peptides—10 micrograms per ml—were added. […]. NaOH was added to neutralize the samples. Plates were centrifuged for 15 min at 2500 rpm and the supernatants removed. […]

The test system of test [9] is Interferon-γ (IFN-γ). Description: Th1/Th2 cytokine profiling assay: IFN-γ. The test is classed as cell-based, Balb/c mice. To be noted: 10 micrograms per ml; Ovalbumin restimulation; 72 hours.
Source text: as §1
The test system of test [10] is Primary Human endothelial cells (HUVEC). Description: Endothelial cell migration assay. Format: cell-based. To be noted: 10 micrograms per ml, 22 hours. Here is the method:
Thereafter, designated concentration of testing peptides—10 micrograms per ml—was added in duplicate wells.

Test [11] relates to Interleukin-4 (IL-4). The test can be described thus: Th1/Th2 cytokine profiling assay: IL-4. Format: cell-based, Balb/c mice. The settings on record: 10 micrograms per ml; Ovalbumin restimulation; 72 hours.
Source text: as §1
Test [12] can be described thus: Th1/Th2 cytokine profiling assay: IL-2. The test is classed as cell-based, Balb/c mice. To be noted: 10 micrograms per ml; Ovalbumin restimulation; 72 hours.
Source text: as §1

With `Cc1cn([C@H]2C[C@H](N=[N+]=[N-])[C@@H](CO)O2)c(=O)[nH]c1=O` [AZT], the “antiviral activity of positive control compounds” value in test [1] is given as “expected levels of antiviral activity”.

Take `Nc1nc(O)c2ncn(COC(CO)CO)c2n1` [Ganciclovir, reference compound]: in test [2] (positive control), the “antiviral activity of positive control compound” value was “expected levels of antiviral activity”.

With `CC(C)(C)NC(=O)[C@@H]1CN(Cc2cccnc2)CCN1C[C@@H](O)C[C@@H](Cc1ccccc1)C(=O)N[C@H]1c2ccccc2C[C@H]1O` [indinavir], the “antiviral activity of positive control compounds” value in test [1] is “expected levels of antiviral activity”.

Consider “Ac-Ser-Asp-Lys-Pro-Asp-Met-Ala-Glu-Ile-Glu-Lys-Phe-Asp-Lys-Ser-Lys-Leu-Lys-Lys-Thr-Glu-Thr-Gln-Glu-Lys-Asn-Pro-Leu-Pro-Ser-Lys-Glu-Thr-Ile-Glu-Gln-Glu-Lys-Gln-Ala-Gly-Glu-Ser-OH (SDKPDMAEIEKFDKSKLKKTETQEKNPLPSKETIEQEKQAGES; printed: Ser-Asp-Lys-Pro-Asp-Met-Ala-Glu-Ile-Glu-Lys-Phe-Asp-Lys-Ser-Lys-Leu-Lys-Lys-Thr-Glu-Thr-Gln-Glu-Lys-Asn-Pro-Leu-Pro-Ser-Lys-Glu-Thr-Ile-Glu-Gln-Glu-Lys-Gln-Ala-Gly-Glu-Ser-) [Peptide 1]”, for which the “inhibition of HBV replication on tested liver cells” value in test [3] is “no effect”. In addition, the “production of TNF-alpha in murine spleen cells (change)” value in test [4] is “did not significantly change”. Moreover, the “phagocytosis induced, as compared to the control experiment” value in test [5] (30 min preincubation, 60 min ingestion) is recorded as 45.7%. Further, the “production of IL-5 in murine spleen cells (change)” value in test [6] is given as “did not significantly change”. Also, the “inhibition of the tube formation of human endothelial cells” value in test [7] came out at 23%. Moreover, the “cAMP formation in PBMC (induced by)” value in test [8] is 15.8%. Besides, the “inhibition of HCMV plaque formation as compared to the virus control experiment” value in test [2] was found to be 1.0%. Also, the “production of IFN-γ in murine spleen cells (decreased by)” value in [9] was 52.7%. Further, the “inhibition of the migration of human endothelial cells” value in test [10] was 3%. The “production of IL-4 in murine spleen cells (induced by)” value in test [11] amounted to 31.6%. Further, the “production of IL-2 in murine spleen cells (induced by)” value in [12] is listed as “did not significantly change”.

In the case of “Trp-Ala-Gly-Gly-Asp-Ala-Ser-Gly-Glu-OH (WAGGDASGE-OH) [Peptide 2]”, the “inhibition of HBV replication on tested liver cells” value in [3] was “no effect”. In addition, the “production of TNF-alpha in murine spleen cells (change)” value in test [4] is “did not significantly change”. The “inhibitory effects on the phagocytic activity of murine macrophages” value in test [5] is listed as “no inhibitory effects”. The “production of IL-5 in murine spleen cells (change)” value in test [6] was “did not significantly change”. The “inhibition of the tube formation of human endothelial cells” value in [7] was 3%. Further, the “cAMP formation in PBMC (induced by)” value in test [8] was “no effects”. In test [2], the “inhibition of HCMV plaque formation as compared to the virus control experiment” value is recorded as 4.4%. Moreover, the “production of IFN-γ in murine spleen cells (decreased by)” value in test [9] came out at 40.8%. In addition, the “production of IL-4 in murine spleen cells (induced by)” value in test [11] came out at 70.6%. In test [12], the “production of IL-2 in murine spleen cells (induced by)” value amounted to 38.1%.
